Patent US20230346820A1, “METHODS AND COMPOSITIONS FOR THE TREATMENT OF SARS-COV-2” (priority 2020, published 2023)
Structures can show the parent of a compound that is named as a salt. Where two headings read alike, the source gives them in different places.

Key:
in vitro = conditions: human
SARS-CoV-2 [1] = test: microbe, parasite or virus in culture
SARS-CoV-2 [2] = tested on: SARS-CoV-2
HeLa-ACE2 cells = test: cells; format: cell-based, human
SARS-CoV-2 [3] = conditions: read-out: Calu-3 CoV-2 EC50; Table 4; aggregated data, Geomean, n = 3; 48 h
[4] = CC50 [μM] (Geomeans, n ≥ 2 except where indicated: *n = 1)
[5] = Severe acute respiratory syndrome coronavirus 2, HeLa-ACE2, 24 h, read-out: CoV-2 EC50 [μM] (Geomeans, n ≥ 2)
[6] = Homo sapiens, HeLa-ACE2, read-out: HeLa-ACE-2 EC50 [μM] (Geomeans, n ≥ 2)
[7] = Severe acute respiratory syndrome coronavirus 2, HeLa-ACE2, read-out: SARS-CoV-2 EC50

Row | SMILES | CC50 (in vitro; [4]) | EC50 (SARS-CoV-2 [1]; [5]) | HeLa-ACE2 CC50/CoV-2 EC50 (SARS-CoV-2 [2]) | EC50 (HeLa-ACE2 cells; [6]) | further results
1 | COC(CNCC(C)C)COc1c(C)csc1C(=O)CCc1ccccc1 (centres unmarked) [LG-6-101] | > 35.6 µM | 3.46 µM | 10.3 |  | 
2 | C[C@@H](n1cnc2cc(Cl)ccc2c1=O)[C@](O)(Cn1cncn1)c1ccc(F)cc1F [albaconazole] | > 39.8 µM | > 6.04 µM | 6.6 | > 9.59 µM | 
3 | CCOC(=O)/C=C/[C@H](C[C@@H]1CCNC1=O)NC(=O)[C@@H](CC(=O)[C@@H](NC(=O)c1cc(C)on1)C(C)C)Cc1ccc(F)cc1 [Rupinavir] | > 39.8 µM | > 9.59 µM | 4.15 | > 9.59 µM | 
4 | CC(C)(/C=N/OCC(=O)O)Cc1c(SC(C)(C)C)c2cc(OCc3ccc4ccccc4n3)ccc2n1Cc1ccc(Cl)cc1 [A 81834] | > 22.6 µM | > 7.47 µM | >3.02 | > 9.59 µM | 
5 | CCOC(=O)c1c(CSc2ccccc2)n(C)c2cc(Br)c(O)c(CN(C)C)c12 [Arbidol] | > 29.1 µM | > 5.97 µM | 4.88 | > 9.34 µM | 
6 | C=CCc1c(OCCCNCc2ccccc2)ccc2c1[nH]c1ccccc12 [YM-75440] | 8.01 µM | 1.64 µM | 4.89 | > 6.58 µM | 
7 | C[C@@H]1CCCN1CCc1cc2cc(-c3ccc(C#N)cc3)ccc2o1 [ABT-239] | > 37.2 µM | > 3.33 µM | 11.18 | > 7.49 µM | 
8 | CN1C[C@@H]2c3ccccc3Oc3ccc(Cl)cc3[C@H]2C1 (racemic) [Asenapine maleate] | > 35.6 µM |  |  |  | 
9 | c1ccc2c(c1)Sc1ccccc1N2CC1CN2CCC1CC2 (centres unmarked) [Mequitazine] | 17.3 µM | 2.53 µM | 6.83 | > 9.59 µM | 
10 | CN(C)CCC(Oc1ccc2c(c1)C(=O)CC(c1ccccc1)O2)c1ccccc1 (centres unmarked) [RFM-007-454-4] | > 23.5 µM | 3.83 µM | >6.13 | > 9.59 µM | 
11 | CCCCN1CC[C@H](c2ccc(N(C)C)cc2)[C@@H](COc2ccc(C(F)(F)F)cc2)C1 [NNC 090026] | > 15.4 µM | 2.75 µM | >5.59 |  | CC50 (in vitro; Uninfected HeLa-ACE2 CC50 (μM)): > 15.4 µM; EC50 (SARS-CoV-2 [1]; Severe acute respiratory syndrome coronavirus 2, HeLa-ACE2, read-out: SARS CoV-2 EC50 (μM)): 2.75 µM
12 | Cc1c(-c2ccc(O)cc2)n(Cc2ccc(OCCN3CCCCCC3)cc2)c2ccc(O)cc12 [bazedoxifene] |  |  |  |  | EC50 (SARS-CoV-2 [1]; [7]): 3.47 µM
13 | NC1(C(=O)N[C@@H](CCO)c2ccc(Cl)cc2)CCN(c2nc[nH]c3nccc2-3)CC1 [AZD-5363] |  |  |  |  | EC50 (HeLa-ACE2 cells; read-out: HeLa-ACE-2 EC50 [μM] (Geomeans, n ≥ 2)): > 3.39 µM; EC50 (SARS-CoV-2 [2]; read-out: CoV-2 EC50 [μM] (Geomeans, n ≥ 2), Table 1, HeLa-ACE2, 24 h): > 4.63 µM
14 | COc1cc(C[C@H]2c3cc(OC)c(OC)cc3CCN2C)c(Oc2cc3c(cc2OC)-c2c(OC)c(OC)cc4c2[C@H](C3)N(C)CC4)cc1OC [Thalicarpine] | > 26.6 µM |  | >45.67 | > 9.6 µM | 
15 | Cc1ccc(C(=O)Nc2ccc(CN3CCN(C)CC3)c(C(F)(F)F)c2)cc1C#Cc1cnc2cccnn12 [Ponatinib] |  | 1.61 µM |  | 1.25 µM | 
16 | O=C(c1ccc(OCCN2CCCCC2)cc1)c1c(-c2ccc(O)cc2)sc2cc(O)ccc12 [raloxifene] |  |  |  |  | EC50 (SARS-CoV-2 [1]; [7]): 4.13 µM
17 | Nc1ncnc2c1nc(Cl)n2[C@@H]1O[C@H](CO)[C@@H](O)[C@H]1O [8-Chloroadenosine] | > 11.9 µM | 0.927 µM | >12.80 |  | 
18 | OC(CNCC(O)C1CCc2cc(F)ccc2O1)C1CCc2cc(F)ccc2O1 (centres unmarked) [nebivolol hydrochloride] | > 11.1 µM | 2.96 µM | >3.75 |  | 
19 | COc1ccc2cc1Oc1ccc(cc1)C[C@H]1c3c(cc4c(c3Oc3cc5c(cc3OC)CCN(C)[C@@H]5C2)OCO4)CCN1C [Cepharanthine] | > 25.4 µM |  | >25.76 |  | 
20 | CNC(=O)c1cc(Oc2ccc(NC(=O)Nc3ccc(Cl)c(C(F)(F)F)c3)cc2)ccn1 [Sorafenib] | > 8.65 µM | > 5.67 µM | >1.52 |  | 
21 | CCN(CC)Cc1cc(Nc2ccnc3cc(Cl)ccc23)ccc1O [Amodioaquine] | > 39.8 µM | 1.19 µM | >33.48 |  | 
22 | COc1ccc(C[C@H]2NC[C@H](O)[C@H]2OC(C)=O)cc1 [ANISOMYCIN] |  |  |  |  | EC50 (SARS-CoV-2 [3]): 0.127 µM; EC50 (SARS-CoV-2 [2]; read-out: HeLa-ACE2 CoV-2 EC50, Table 4, aggregated data, Geomean, n = 3): 0.066 µM
23 | CN(C)CC1=C[CH]([Fe][CH]2C=CC=C2)C=C1CNc1ccnc2cc(Cl)ccc12 (centres unmarked) [Ferroquine] | 13.4 µM |  | 10.29 |  | 
